Biological target: T1, Human Vanilloid Receptor 1 (Homo sapiens, UniProt Q8NER1)
T1 construct: expressed in transfected cells; host or cells: HEK 293
Assay: Human VR1 functional assay using FLIPR, Protocol 1
Format: cell-based
Details: for inhibition at 9 µM: HEK293, 9 uM, inhibition of capsaicin (EC80)-induced calcium response, HEK 293 cells transfected with hVR1, read-out: h % I (9 uM); for IC50: decreased capsaicin (EC80)-induced calcium response, HEK 293 hVR1, read-out: h IC50; for Emax at 12.2 µM: HEK293, 12.2 uM, test compound-induced calcium response (agonist mode), HEK 293 hVR1, read-out: % maximal reponse to capsaicin (12.2 uM); for EC50: test compound-induced calcium response at the 5-minute time point, HEK 293 hVR1, read-out: h EC50
Experimental: The functional activity of the test compounds was determined by measuring changes in intracellular calcium concentration using FLIPR™ Calcium-3 Assay Kit and FLIPR™ technology.
HEK 293 cells transfected with Human Vanilloid Receptor 1 were maintained at 37° C. and 5% CO2 in: Dulbecco's Modification of Eagle's Medium (high glucose, L-glutamine, pyridoxine HCl, No sodium pyruvate), 10% FBS, 1× Penicillin-Streptomycin-Amphotericin B, 200 ug/mL zeocin. Approximately 24 hours prior to assay, 30,000 cells/well were plated onto a 384-well black clear bottom poly-D-lysine-coated assay plate with a well volume of 25 µL using Titertek Multidrop.
On the day of the assay, the medium was dumped and 50 μL 1× dye were loaded using Multidrop. Plates were incubated with dye at 37° C. for 30 minutes followed by 30 minutes incubation at room temperature. Then the plates were assayed by FLIPR™ with 2 additions: 12.5 μL test compound with 5 minutes data acquisition followed by 12.5 μL capsaicin at the EC80 concentration.
The EC50 values of test compounds were calculated based on a test compound-induced calcium response at the 5-minute time point. The IC50 values of compounds were calculated based on a decreased capsaicin-induced calcium response in the presence of test compound.

T1 sequence (Q8NER1 whole entry): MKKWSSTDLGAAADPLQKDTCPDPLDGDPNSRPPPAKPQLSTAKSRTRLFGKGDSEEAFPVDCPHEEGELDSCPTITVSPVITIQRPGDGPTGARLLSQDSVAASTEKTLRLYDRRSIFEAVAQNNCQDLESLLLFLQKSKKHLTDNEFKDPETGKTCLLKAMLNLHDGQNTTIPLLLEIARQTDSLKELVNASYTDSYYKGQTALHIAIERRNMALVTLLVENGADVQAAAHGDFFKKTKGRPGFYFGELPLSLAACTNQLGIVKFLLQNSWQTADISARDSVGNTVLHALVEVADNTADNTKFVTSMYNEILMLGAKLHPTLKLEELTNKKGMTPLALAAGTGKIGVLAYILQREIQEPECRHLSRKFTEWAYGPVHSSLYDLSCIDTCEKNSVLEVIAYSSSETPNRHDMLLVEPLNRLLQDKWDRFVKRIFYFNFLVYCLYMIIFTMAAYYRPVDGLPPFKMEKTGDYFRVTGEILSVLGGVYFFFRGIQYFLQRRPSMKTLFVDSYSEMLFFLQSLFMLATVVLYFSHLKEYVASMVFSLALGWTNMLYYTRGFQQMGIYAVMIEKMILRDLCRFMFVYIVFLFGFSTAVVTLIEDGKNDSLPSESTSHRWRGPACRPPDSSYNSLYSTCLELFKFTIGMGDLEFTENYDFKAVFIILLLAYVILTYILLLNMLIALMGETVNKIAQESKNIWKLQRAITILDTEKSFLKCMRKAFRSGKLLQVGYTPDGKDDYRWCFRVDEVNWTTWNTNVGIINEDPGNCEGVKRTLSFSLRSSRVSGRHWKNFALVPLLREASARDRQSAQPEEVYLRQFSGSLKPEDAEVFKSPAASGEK

| inhibition at 9 µM | IC50 | Emax at 12.2 µM | EC50 | SMILES |
| --- | --- | --- | --- | --- |
| 19% |  |  |  | O=C(Nc1ccc2cc[nH]c2c1)C1CCN(c2cccc(C(F)(F)F)c2)CC1 [Example 23, 1-(3-Trifluoromethyl-phenyl)-piperidine-4-carboxylic acid (1H-indol-6-yl)-amide] |
| 5% |  |  |  | CNc1ccc2ncncc2c1NC(=O)C1CCN(c2cccc(C(F)(F)F)c2)CC1 [Example 45, 1-(3-Trifluoromethyl-phenyl)-piperidine-4-carboxylic acid (6-methylamino-quinazolin-5-yl)-amide] |
| 61.4% | 1.2 µM |  |  | CC(=O)N1CCc2c(NC(=O)C3CCN(c4cccc(C(F)(F)F)c4)CC3)cccc21 [Example 46, 1-(3-Trifluoromethyl-phenyl)-piperidine-4-carboxylic acid (1-acetyl-2,3-dihydro-1H-indol-4-yl)-amide] |
| 93% | 0.13 µM |  |  | O=C1COc2ccc(NC(=O)C3CCN(c4cccc(F)c4Br)CC3)cc2N1 [Example 160, 1-(2-Bromo-3-fluoro-phenyl)-piperidine-4-carboxylic acid (3-oxo-3,4-dihydro-2H-benzo[1,4]oxazin-6-yl)-amide] |
| 28.7% |  |  |  | O=C1COc2ccc(NC(=O)C3CCN(c4ncccc4[N+](=O)[O-])CC3)cc2N1 [Example 161, 3′-Nitro-3,4,5,6-tetrahydro-2H-[1,2′]bipyridinyl-4-carboxylic acid (3-oxo-3,4-dihydro-2H-benzo[1,4]oxazin-6-yl)-amide] |
| 102% | 0.23 µM |  |  | Cc1cccc(N2CCC(C(=O)Nc3cnc4ccccc4c3)CC2)c1C [Example 5, 1-(2,3-Dimethyl-phenyl)-piperidine-4-carboxylic acid quinolin-3-ylamide] |
| 79.3% | 1.42 µM |  |  | COc1cccc(N2CCC(C(=O)Nc3ccc4c(c3)NC(=O)CO4)CC2)c1 [Example 150, 1-(3-Methoxy-phenyl)-piperidine-4-carboxylic acid (3-oxo-3,4-dihydro-2H-benzo[1,4]oxazin-6-yl)-amide] |
| 44% | 15.5 µM |  |  | O=C(Nc1cnc2ccccc2c1)C1CCN(c2cccc(-c3ccccc3)c2)CC1 [Example 3, 1-Biphenyl-3-yl-piperidine-4-carboxylic acid quinolin-3-ylamide] |
|  |  | 62.8% | 0.32 µM | O=C1Cc2ccc(NC(=O)C3CCN(c4cccc(C(F)(F)F)c4)CC3)cc2N1 [Example 38, 1-(3-Trifluoromethyl-phenyl)-piperidine-4-carboxylic acid (2-oxo-2,3-dihydro-1H-indol-6-yl)-amide] |
| 93.3% | 0.06 µM |  |  | O=C1COc2ccc(NC(=O)C3CCN(c4cc(F)c(F)c(F)c4)CC3)cc2N1 [Example 156, 1-(3,4,5-Trifluoro-phenyl)-piperidine-4-carboxylic acid (3-oxo-3,4-dihydro-2H-benzo[1,4]oxazin-6-yl)-amide] |
| 10% |  |  |  | Cc1cc(Oc2ccccc2)nc(NC(=O)C2CCN(c3cccc(C(F)(F)F)c3)CC2)n1 [Example 43, 1-(3-Trifluoromethyl-phenyl)-piperidine-4-carboxylic acid (4-methyl-6-phenoxy-pyrimidin-2-yl)-amide] |
| 85% | 1.81 µM |  |  | O=C1COc2ccc(NC(=O)C3CCN(c4ccccc4)CC3)cc2N1 [Example 139, 1-Phenyl-piperidine-4-carboxylic acid (3-oxo-3,4-dihydro-2H-benzo[1,4]oxazin-6-yl)-amide] |
| 12.5% |  |  |  | O=C(Nc1ccc2c(c1)OCCO2)C1CCN(c2cccc(C(F)(F)F)c2)CC1 [Example 18, 1-(3-Trifluoromethyl-phenyl)-piperidine-4-carboxylic acid (2,3-dihydro-benzo[1,4]dioxin-6-yl)-amide] |

Second part, the compound before the results:

| SMILES | inhibition at 9 µM | IC50 | Emax at 12.2 µM | EC50 |
| --- | --- | --- | --- | --- |
| CC(=O)N1c2cc(NC(=O)C3CCN(c4cccc(C(F)(F)F)c4)CC3)ccc2CC1C (stereo not shown) [Example 37, 1-(3-Trifluoromethyl-phenyl)-piperidine-4-carboxylic acid (1-acetyl-2-methyl-2,3-dihydro-1H-indol-6-yl)-amide] | 46.5% | 2.64 µM |  |  |
| O=C(Nc1cc(-c2ccco2)n[nH]1)C1CCN(c2cccc(C(F)(F)F)c2)CC1 [Example 47, 1-(3-Trifluoromethyl-phenyl)-piperidine-4-carboxylic acid (5-furan-2-yl-2H-pyrazol-3-yl)-amide] | 12% |  |  |  |
| CC(=O)N1CCc2cc(NC(=O)C3CCN(c4cccc(C(F)(F)F)c4)CC3)ccc21 [Example 29, 1-(3-Trifluoromethyl-phenyl)-piperidine-4-carboxylic acid (1-acetyl-2,3-dihydro-1H-indol-5-yl)-amide] | 13% |  |  |  |
| O=C(Nc1cccc2cc[nH]c12)C1CCN(c2cccc(C(F)(F)F)c2)CC1 [Example 30, 1-(3-Trifluoromethyl-phenyl)-piperidine-4-carboxylic acid (1H-indol-7-yl)-amide] |  |  | 40% | 5.31 µM |
| N#Cc1c(N2CCC(C(=O)Nc3ccc4c(c3)NC(=O)CO4)CC2)cccc1C(F)(F)F [Example 162, 1-(2-Cyano-3-trifluoromethyl-phenyl)-piperidine-4-carboxylic acid (3-oxo-3,4-dihydro-2H-benzo[1,4]oxazin-6-yl)-amide] | 37% |  |  |  |
| N#Cc1ccc(C(F)(F)F)cc1N1CCC(C(=O)Nc2ccc3c(c2)NC(=O)CO3)CC1 [Example 163, 1-(2-Cyano-5-trifluoromethyl-phenyl)-piperidine-4-carboxylic acid (3-oxo-3,4-dihydro-2H-benzo[1,4]oxazin-6-yl)-amide] | 19.7% |  |  |  |
| CN(C)c1nc(NC(=O)C2CCN(c3cccc(C(F)(F)F)c3)CC2)ncc1-c1ccccc1 [Example 35, 1-(3-Trifluoromethyl-phenyl)-piperidine-4-carboxylic acid (4-dimethylamino-5-phenyl-pyrimidin-2-yl)-amide] | 14% |  |  |  |
| O=C1COc2ncc(NC(=O)C3CCN(c4cccc(C(F)(F)F)c4)CC3)cc2N1 [Example 167, 1-(3-Trifluoromethyl-phenyl)-piperidine-4-carboxylic acid (2-oxo-2,3-dihydro-1H-pyrido[2,3-b][1,4]oxazin-7-yl)-amide] | 45.7% |  |  |  |
| Cn1cnc2c(N3CCC(C(=O)Nc4cccc5[nH]ccc45)CC3)ncnc21 [Example 54, 1-(9-Methyl-9H-purin-6-yl)-piperidine-4-carboxylic acid (1H-indol-4-yl)-amide] | 16% |  |  |  |
| O=C(Nc1ccc2c(=O)[nH][nH]c(=O)c2c1)C1CCN(c2cccc(C(F)(F)F)c2)CC1 [Example 31, 1-(3-Trifluoromethyl-phenyl)-piperidine-4-carboxylic acid (1,4-dioxo-1,2,3,4-tetrahydro-phthalazin-6-yl)-amide] | 16% |  |  |  |
| O=C(Nc1nsc2ccc([N+](=O)[O-])cc12)C1CCN(c2cccc(C(F)(F)F)c2)CC1 [Example 20, 1-(3-Trifluoromethyl-phenyl)-piperidine-4-carboxylic acid (5-nitro-benzo[d]isothiazol-3-yl)-amide] | 2.5% |  |  |  |
| O=C1Cc2cc(NC(=O)C3CCN(c4cccc(C(F)(F)F)c4)CC3)ccc2N1 [Example 17, 1-(3-Trifluoromethyl-phenyl)-piperidine-4-carboxylic acid (2-oxo-2,3-dihydro-1H-indol-5-yl)-amide] |  |  | 49% | 0.47 µM |
| Cn1ncc2cc(NC(=O)C3CCN(c4cccc(C(F)(F)F)c4)CC3)ccc21 [Example 24, 1-(3-Trifluoromethyl-phenyl)-piperidine-4-carboxylic acid (1-methyl-1H-indazol-5-yl)-amide] |  |  | 68.5% | 1.5 µM |
| O=C(Nc1ccc2c(c1)OCCCO2)C1CCN(c2cccc(C(F)(F)F)c2)CC1 [Example 28, 1-(3-Trifluoromethyl-phenyl)-piperidine-4-carboxylic acid (3,4-dihydro-2H-benzo[b][1,4]dioxepin-7-yl)-amide] | 77% | 2.18 µM |  |  |
